Legend:
[1] = tested on: COG-N-440x neuroblastoma PDX; experiment: High-risk neuroblastoma PDX COG-N-440x; format: in vivo, NSG mice; settings: COG-N-440x PDX; vincristine 0.5 mg/kg i.p. once weekly
Description: (§1) All animal studies were performed in accordance with the guidelines approved by University of New South Wales Animal Care and Ethics Committee (ACEC 17/53B) and in accordance with the requirements of the Australian Code for the Care and Use of Animals for Scientific Purposes. PDX models COG-N-440x and COG-N-496x were obtained from the Childhood Cancer Repository, Texas Tech University Health Sciences Center in Lubbock, TX, USA. 6–8 week old female NSG mice were engrafted by subcutaneous injection with 1 × 10^6 freshly thawed PDX tumor cells into one flank in a mixture of 100 μl RPMI-1640 and 100 μl Matrigel. Mice were monitored for tumor development three times weekly and tumor size measured using digital Vernier calipers. Treatments commenced when tumors reached 50 mm^3, following randomization into treatment arms. […] Mice were treated with either vincristine (0.5 mg/kg, once weekly i.p. in sterile saline for up to 5 weeks), WEHI-7326 (20 mg/kg; twice weekly i.v. in sterile saline for up to 5 weeks) or vehicle (as for WEHI-7326). For the Th-MYCN transgenic mouse model, spontaneous tumor growth in mice homozygous for the MYCN transgene was assessed by abdominal palpation at least twice a week. Treatments commenced once a small palpable tumor (~5 mm) was detected, following randomization to treatment arms. Mice were euthanized upon detection of an abdominal tumor of ~1 cm in diameter. […]

[2] = tested on: COG-N-496x neuroblastoma PDX; experiment: High-risk neuroblastoma PDX COG-N-496x; format: in vivo, NSG mice; settings: COG-N-496x PDX; vincristine 0.5 mg/kg i.p. once weekly
Description: as §1

For `CC[C@]1(O)C[C@H]2CN(CCc3c([nH]c4ccccc34)[C@@](C(=O)OC)(c3cc4c(cc3OC)N(C=O)[C@H]3[C@@](O)(C(=O)OC)[C@H](OC(C)=O)[C@]5(CC)C=CCN6CC[C@]43[C@@H]65)C2)C1` [vincristine, reference compound], the Efficacy [1] was “entirely ineffective” and the Efficacy [2] was “entirely ineffective”.
